Experiment [1] concerns 786-O. Briefly: Cytotoxicity assay (Version 2), automated, AC50, with or without elastase. The format is cell-based, human. On the procedure:
(§1) Cultivation of cells was performed according to standard procedures with the media recommended by the provider. The cells, in a total volume of 100 μL, were seeded in a 96-well plate with a white bottom (#3610). After a 24 h incubation period at 37° C. and […], the medium was exchanged by adding 90 μL fresh medium. The treatment started by adding the test compound in 10 μL of culture medium to the cells in triplicates. Concentrations ranging from 10^−5 M to 10^−13 M were chosen. Two identically treated sets of samples were prepared. One set was treated with the test compound alone, whereas to the second set the compound and 10 nM elastase was added followed by a 72 h incubation period at 37° C. and 5% CO2. The proliferation was detected using the MTT assay (ATCC). At the end of the incubation period the MTT reagent was added to all samples for 4 h. Lysis of the cells followed by addition of the detergent was done overnight. The formed dye was detected at 570 nm. The proliferation of untreated but otherwise identically handled cells was define as the […].
(§2) The Cytotoxicity assay (Version 2) was performed as above described. Some changes were applied as the assays were performed in an automated fashion and the IC50 values determination was changed. Here the change in metabolic activity of the cells, in percent, was calculated by normalization of the measured values to the absorbance values of medium containing wells without cells (=−100%) and the absorbance of the DMSO-treated cells (=0%). AC50 values (activity concentration at −50%) were determined by means of a 4 parameter Hill-fit using GeneData Screener software.

In experiment [2] the test system is NCI H292. The description is as above. The format is cell-based, human. On the procedure: as §1, §2
In experiment [3] the test system is HT29. The experiment is described as above. The format is cell-based, human. On the procedure:
as §1, §2

In experiment [4] the test system is SUM149. The description is as above. The format is cell-based. On the procedure:
as §1, §2

In experiment [5] the test system is SUM149. Briefly: Cytotoxicity in vitro in the presence and absence of elastase (MTT). Type of experiment: cell-based. On the procedure:
as §1

For experiment [6], the system named is 786-O. The description is as above. The format is cell-based, human. On the procedure: as §1
Experiment [7] has as its system NCI H292. Described as above. Type of experiment: cell-based, human. On the procedure: as §1
Experiment [8] concerns HT29. The description is as above. The format is cell-based, human. On the procedure: as §1
The mark [9] stands for this setting: read-out: SUM149 IC50 w elastase.
Where [10] appears, read: read-out: 786-O IC50 w elastase.
Where [11] appears, read: read-out: NCI H292 IC 50 w elastase.

This is an account of results in US20250032477A1, “COMPOUNDS, PHARMACEUTICAL COMPOSITIONS, AND METHODS FOR THE TREATMENT, PREVENTION, OR MANAGEMENT OF HYPERPROLIFERATIVE DISORDERS” (VINCERX PHARMA GMBH, priority 2021, published 2025).

Where a name gives a salt, the structure may show the parent alone. Read-outs that look alike come from different tables or passages of the source.

Regarding `CCCNC(=O)Nc1cccc(S(=O)(=O)Nc2cccc([C@@H](CC(=O)O)NC(=O)Nc3ccc(NC(=O)NCCOCCOCCOCCC(=O)NCCCC[C@H](NC(=O)CCOCCOCCOCCNC(=O)Nc4ccc(NC(=O)N[C@H](CC(=O)O)c5cccc(NS(=O)(=O)c6cccc(NC(=O)NCCC)c6)c5)cc4)C(=O)NCCOCCOCCOCCC(=O)N[C@@H](CC(=O)O)C(=O)N4CCC[C@H]4C(=O)N[C@H](C(=O)O[C@]4(CC)C(=O)OCc5c4cc4n(c5=O)Cc5cc6cc7c(cc6nc5-4)OCO7)C(C)C)cc3)c2)c1` [Compound 22], the concentration at half-maximal activity (AC50) in the experiment on 786-O [1] (read-out: 786-O AC50 +elastase) was less than 1 nM; in the experiment with 786-O [1] (read-out: 786-O AC50 −elastase) it was greater than 100 nM; in the experiment with NCI H292 [2] (read-out: NCI H292 AC50 +elastase) it was less than 1 nM; with NCI H292 [2] (read-out: NCI H292 AC50 −elastase), 1.1 to 10 nM; with HT29 [3] (read-out: HT29 AC50 +elastase), 1.1 to 10 nM; in the experiment on HT29 [3] (read-out: HT29 AC50 −elastase), greater than 100 nM. Further, the results for the half-maximal activity concentration (AC50) with SUM149 [4] (read-out: SUM149 AC50 +elastase) and with SUM149 [4] (read-out: SUM149 AC50 −elastase) were less than 1 nM and 11 to 100 nM, respectively.

`CCCNC(=O)Nc1cccc(S(=O)(=O)Nc2cccc([C@H](CC(=O)O)NC(=O)Nc3ccc(NC(=O)NCCOCCOCCOCCC(=O)N[C@@H](CC(=O)O)C(=O)N4CCC[C@H]4C(=O)N[C@H](C(=O)O[C@]4(CC)C(=O)OCc5c4cc4n(c5=O)Cc5c-4nc4cc(F)c(C)c6c4c5[C@@H](NC(C)=O)CC6)C(C)C)cc3)c2)c1` [Compound 13, disodium (1S,9S)-1-acetamido-9-ethyl-5-fluoro-4-methyl-10,13-dioxo-2,3,9,10,13,15-hexahydro-1H,12H-benzo[de]pyrano[3′,4′:6,7]indolizino[1,2-b]quinolin-9-yl 1-[(2S)-2-(carboxylatomethyl)-17-{4-[({(1S)-2-carboxylato-1-[3-({3-[(propylcarbamoyl)amino]benzene-1-sulfonyl}amino)phenyl]ethyl}carbamoyl)amino]anilino}-4,17-dioxo-7,10,13-trioxa-3,16-diazaheptadecanan-1-oyl]-L-prolyl-L-valinate]: the IC50 lay in the range of 0.01 to 0.1 nM in the experiment on SUM149 [5] (setting [9]); 1.1 to 10 nM in the experiment with SUM149 [5] (read-out: SUM149 IC50 w/o); 0.01 to 0.1 nM in the experiment on 786-O [6] (setting [10]); 10 to 100 nM in the experiment on 786-O [6] (read-out: 786-O IC50 w/o); 0.01 to 0.1 nM in the experiment on NCI H292 [7] (setting [11]); 1.1 to 10 nM with NCI H292 [7] (read-out: NCI H292 IC 50 w/o). Also, the IC50 with HT29 [8] (read-out: HT29 IC50 w elastase) is 0.1 to 1 nM; in the experiment on HT29 [8] (read-out: HT29 IC50 w/o) it was greater than 100 nM.

On to `CCCNC(=O)Nc1cccc(S(=O)(=O)Nc2cccc([C@H](CC(=O)O)NC(=O)Nc3ccc(NC(=O)NCCOCCOCCOCCC(=O)N[C@@H](CC(=O)O)C(=O)N4CCC[C@H]4C(=O)N[C@H](C(=O)O[C@]4(CC)C(=O)OCc5c4cc4n(c5=O)Cc5cc6cc7c(cc6nc5-4)OCO7)C(C)C)cc3)c2)c1` [Compound 15, (7S)-7-ethyl-8,11-dioxo-7,8,11,13-tetrahydro-2H,10H-[1,3]dioxolo[4,5-g]pyrano [3′,4′:6,7]indolizino[1,2-b]quinolin-7-yl N-(14-{4-[({(1S)-2-carboxy-1-[3-({3-[(propylcarbamoyl)amino]benzene-1-sulfonyl}amino)phenyl]ethyl}carbamoyl)amino]anilino}-14-oxo-4,7,10-trioxa-13-azatetradecanan-1-oyl)-L-alpha-aspartyl-L-prolyl-L-valinate-bis sodium salt], for which the IC50 is less than 0.01 nM in the experiment with SUM149 [5] (setting [9]); 1.1 to 10 nM in the experiment on SUM149 [5] (read-out: SUM149 IC50 w/o); 0.01 to 0.1 nM in the experiment with 786-O [6] (setting [10]); 10 to 100 nM with 786-O [6] (read-out: 786-O IC50 w/o); 0.01 to 0.1 nM in the experiment with NCI H292 [7] (setting [11]); 1.1 to 10 nM in the experiment on NCI H292 [7] (read-out: NCI H292 IC 50 w/o). Also, the IC50 was in the range of 0.01 to 0.1 nM with HT29 [8] (read-out: HT29 IC50 w elastase) and 10 to 100 nM in the experiment with HT29 [8] (read-out: HT29 IC50 w/o).

Consider `CCCNC(=O)Nc1cccc(S(=O)(=O)Nc2cccc([C@@H](CC(=O)O)NC(=O)Nc3ccc(NC(=O)NCCN(C)CCN(C)CCN(C)CC(=O)N[C@@H](CC(N)=O)C(=O)N4CCC[C@H]4C(=O)N[C@H](C(=O)O[C@]4(CC)C(=O)OCc5c4cc4n(c5=O)Cc5cc6cc7c(cc6nc5-4)OCO7)C(C)C)cc3)c2)c1` [Compound 6, (7S)-7-ethyl-8,11-dioxo-7,8,11,13-tetrahydro-2H,10H-[1,3]dioxolo[4,5-g]pyrano[3′,4′:6,7] indolizino[1,2-b]quinolin-7-yl N-{2-[{2-[{2-[({4-[({(1R)-2-carboxy-1-[3-({3-[(propylcarbamoyl)amino]benzene-1-sulfonyl}amino)phenyl]ethyl}carbamoyl)amino]phenyl}carbamoyl)amino]ethyl}(methyl)amino]ethyl}(methyl)amino]ethyl}-N-methylglycyl-L-asparaginyl-L-prolyl-L-valinate], for which the IC50 in the experiment on SUM149 [5] (SUM149 cells, with 10 nM elastase, 72 h, MTT, read-out: SUM149 IC50 w elastase) is less than 0.01 nM; in the experiment with SUM149 [5] (SUM149 cells, without elastase, 72 h, MTT, read-out: SUM149 IC50 w/o), 0.1 to 1 nM; in the experiment with 786-O [6] (786-O cells, with 10 nM elastase, 72 h, MTT, read-out: 786-O IC50 w elastase), 0.01 to 0.1 nM; in the experiment on 786-O [6] (786-O cells, without elastase, 72 h, MTT, read-out: 786-O IC50 w/o), 1.1 to 10 nM; in the experiment with NCI H292 [7] (NCI H292 cells, with 10 nM elastase, 72 h, MTT, read-out: NCI H292 IC 50 w elastase), 0.01 to 0.1 nM; in the experiment on NCI H292 [7] (NCI H292 cells, without elastase, 72 h, MTT, read-out: NCI H292 IC 50 w/o), 1.1 to 10 nM. Moreover, the IC50 lay within 0.01 to 0.1 nM in the experiment on HT29 [8] (HT29 cells, with 10 nM elastase, 72 h, MTT, read-out: HT29 IC50 w elastase) and 1.1 to 10 nM in the experiment with HT29 [8] (HT29 cells, without elastase, 72 h, MTT, read-out: HT29 IC50 w/o).

In the case of `CCCNC(=O)Nc1cccc(S(=O)(=O)Nc2cccc([C@@H](CC(=O)O)NC(=O)Nc3ccc(NC(=O)NCCOCCOCCOCCC(=O)N[C@@H](CC(=O)O)C(=O)N4CCC[C@H]4C(=O)N[C@H](C(=O)O[C@]4(CC)C(=O)OCc5c4cc4n(c5=O)Cc5c-4nc4cc(F)c(C)c6c4c5[C@@H](NC(=O)OCc4ccccc4)CC6)C(C)C)cc3)c2)c1` [Compound 3, (1S,9S)-1-{[(benzyloxy)carbonyl]amino}-9-ethyl-5-fluoro-4-methyl-10,13-dioxo-2,3,9,10,13,15-hexahydro-1H,12H-benzo[de]pyrano[3′,4′:6,7] indolizino[1,2-b]quinolin-9-yl N-(14-{4-[({(1R)-2-carboxy-1-[3-({3-[(propylcarbamoyl)amino]benzene-1-sulfonyl}amino)phenyl]ethyl}carbamoyl)amino]anilino}-14-oxo-4,7,10-trioxa-13-azatetradecanan-1-oyl)-L-alpha-aspartyl-L-prolyl-L-valinate], the IC50 lay within 0.01 to 0.1 nM in the experiment with SUM149 [5] (setting [9]); 10 to 100 nM in the experiment with SUM149 [5] (read-out: SUM149 IC50 w/o); 0.1 to 1 nM in the experiment with 786-O [6] (setting [10]); 10 to 100 nM in the experiment with 786-O [6] (read-out: 786-O IC50 w/o); 0.01 to 0.1 nM with NCI H292 [7] (setting [11]); 1.1 to 10 nM with NCI H292 [7] (read-out: NCI H292 IC 50 w/o). Also, the values for the IC50 in the experiment with HT29 [8] (read-out: HT29 IC50 w elastase) and in the experiment on HT29 [8] (read-out: HT29 IC50 w/o) were 0.1 to 1 nM and greater than 100 nM, respectively.

In general, AC50 refers to the midpoint of the concentration-response curve, whichever way the signal moves.
